Experiments:
Type in all cases: cell-based
[1] = system: cynomolgus monkey corneal endothelial cells; experiment: BrdU ELISA, one concentration per agent, monkey corneal endothelial cells (Example 9); details: 10 μM SB203580, 1 μM Semapimod, 3 μM BIRB796, 1 μM PH-797804, 3 μM VX-702, 3 μM LY2228820, 3 μM TAK-715, * p<0.01
Description: The medium was removed from a culture dish culturing cynomolgus monkey corneal endothelial cells. PBS (-) heated to 37° C. in advance was added thereto and the cells were washed. This operation was repeated twice. After removing the PBS (-), 0.05% Trypsin-EDTA (NacalaiTesque, 35554-64) was added and the cells were incubated for 10 minutes at 37° C. (5% CO2). The cells were then suspended in DMEM (Nacalai Tesque, 08456-94)+10% FBS (Biowest, S1820-500)+1% penicillin/streptomycin (Nacalai Tesque, catalog number: 26252-94) and centrifuged for 3 minutes at 1200 rpm to collect the cells. A 96-well plate was treated with an FNC coating mix (50 ml ([…], catalog number: 0407). The monkey corneal endothelial cells (lot: 20120404-3L-P9) were seeded in the coated 96-well plate at a ratio of 3000 cells/well. The cells were cultured for 30 hours at 37° C. (5% CO2). After 30 hours, the medium was removed and changed to a serum free medium: DMEM+1% P/S to culture the cells for 18 hours. […] SMC20120918), BIRB796 (Doramapimod) (Selleck Chemicals, catalog number: S1574, lot number: S157402), PH-797804 (Selleck Chemicals, catalog number: S2726, lot number: 01), VX-702 (Selleck Chemicals, catalog number: S6005, lot number: 02), LY2228820 (Selleck Chemicals, catalog number: S1494, lot number: 01), and TAK-715 (Selleck Chemical, catalog number: […] DMSO was added to the control. After 24 hours, a BrdU labeling reagent (Amersham Cell Proliferation Biotrak ELISA System, Version 2, GE Healthcare, catalog number: RPN250) was further added at a ratio of 1:1000 to the DMEM+10% FBS+1% P/S medium. […] DMSO was added to the control. After 24 hours, BrdU ELISA was carried out with Amersham Cell Proliferation Biotrak ELISA System, Version 2 (GE Healthcare, catalog number: RPN250). The absorbance at 450 nm was measured.

corneal endothelium = experiment: UV-induced apoptosis of corneal endothelium in rabbit sclerocornea segments, Annexin V and DAPI staining; details: rabbit corneal tissue; UV 100 J/m^2; stored 24 hours at 4° C.; 10 μM SB203580, 3 μM BIRB796, 1 μM PH-797804, 3 μM VX-702, 3 μM LY2228820, 3 μM TAK-715
Description: The experiment used a rabbit eye ball 0-24 hours after euthanasia. Sclerocornea was removed along the corneal limbus under a stereo microscope by using spring scissors. The crystalline lens and iris were removed to make a sclerocornea segment. […] After dividing a cornea, pretreatment was applied to the Control group for 2 hours in the dark with Optisol-GS® (Bausch & Lomb) (Lot. […] After washing the cornea twice with PBS(−), 100 J/m^2 of UV was irradiated onto the corneal endothelial cells, which were against stored for 24 hours at 4° C. […] The sclerocornea segments were washed with PBS(−), and MEBCYTO-Apoptosis kit (Annexin V-FITC kit) (MBL) (Lot. 027FA) was used for Annexin V and DAPI staining. The segments were immersed and immobilized for 30 minutes in −30° C. ice-cooled 95% ethanol. In order to remove ethanol components, PBS(−) was exchanged every 5 minutes and the segments were washed three times. An antifading agent was then added and enclosed. Annexin V and nuclei was observed by fluorescence imaging under a confocal microscope. The percentage of Annexin V positive cells were calculated in the above-described rabbit corneal tissue. *p<0.05 (Dunnett's test).

[2] = system: cultured monkey corneal endothelial cells; experiment: UV-induced apoptosis of cultured monkey corneal endothelial cells, Annexin V and DAPI staining; details: UV 100 J/m^2, after 9 hours of culture
Description: 1×10^5 cultured monkey corneal endothelial cells were seeded on a 12-well plate coated with an FNC Coating Mix and cultured for about 5 days until reaching confluence under the condition of 5% CO2 at 37° C.
Each inhibitor was then added at the concentration in the above-described Table and the cells were incubated for 16 hours under the condition of 5% CO2 at 37° C. The solvent of each reagent, Dimethyl Sulfoxide, Sterile-filtered (nacalai tesque, 13408-64) MSO, was added to the Control group and the UV group. Gibco DMEM, 1% P/S (penicillin/streptomycin) was used as the medium.
The cellular supernatant was then removed and the cells were irradiated with UV (100 J/m^2). After irradiation, cells were again added to a medium containing each inhibitor and cultured for 9 hours. The cell form and apoptosis were observed under a phase difference microscope.
The cells, after 9 hours of culture, were stained for 20 minutes at 37° C. by using MEBCYTO-Apoptosis Kit (Annexin V-FITC Kit) (manufacturer: MBL, Code: 4700). The cells were then immobilized for 10 minutes with 95% acetic acid ethanol. After immobilization, the cells were stained for 30 minutes with DAPI Solution (manufacturer: DOJINDO, Code: GA098) and observed under a confocal microscope.

SMILES	BrdU uptake as a percentage with respect to the control (proliferation) [1]	Apoptosis induced by UV (annexin V staining) (corneal endothelium)	Apoptosis induced by UV (annexin V staining) [2]
CNC(=O)c1ccc(C)c(-n2c(C)cc(OCc3ccc(F)cc3F)c(Br)c2=O)c1 [PH-797804, 3-(3-bromo-4-((2,4-difluorobenzyl)oxy)-6-methyl-2-oxopyridine-1(2H)-yl)-N,4-dimethylbenzamide]	promotes proliferation	suppressed	suppressed
CC(C)(C)Cn1c(N)nc2ccc(-c3nc(C(C)(C)C)[nH]c3-c3ccc(F)cc3)nc21 [LY2228820, 5-(2-(tert-butyl)-5-(4-fluorophenyl)-1H-imidazole-4-yl)-3-neopentyl-3H-imidazo[4,5-b]pyridine-2-amine]	promotes proliferation	suppressed	suppressed
Cc1ccc(-n2nc(C(C)(C)C)cc2NC(=O)Nc2ccc(OCCN3CCOCC3)c3ccccc23)cc1 [BIRB796, N-[3-tert-butyl-1-(4-methylphenyl)pyrazole-5-yl]-N′-[4-(2-morpholinoethoxy)-1-naphthyl]urea]	promotes proliferation	suppressed	suppressed
CCc1nc(-c2cccc(C)c2)c(-c2ccnc(NC(=O)c3ccccc3)c2)s1 [TAK-715, 2-benzamide-4-[2-ethyl-4-(3-methylphenyl)thiazole-5-yl]pyridine]	promotes proliferation	suppressed	suppressed
C[S+]([O-])c1ccc(-c2nc(-c3ccncc3)c(-c3ccc(F)cc3)[nH]2)cc1 (stereo not drawn) [SB203580, 4-(4-fluorophenyl)-2-(4-methylsulfinylphenyl)-5-(4-pyridyl)-1H-imidazole]	promotes proliferation	suppressed	suppressed
